Tests used:
[1] = Stability of itampolin A in biological samples under different storage conditions; type: physicochemical, rat; conditions: for Stability, Short-Term (at Room Temperature for 4 h) / Stability, Three Freeze–Thaw Cycles / Stability, Autosampler 4 °C for 24 h / Stability, Long-Term (at −80 °C for 30 Days): n = 5, in %
Method: The stability of itampolin A was investigated by analyzing five replicates of the samples at three QC levels (3, 40, and 1280 ng/mL) under different storage conditions: (1) 4 h exposure at room temperature, (2) 24 h storage in the autosampler at 4 °C, (3) three freeze–thaw cycles, and (4) storage at −80 °C for 30 days. The samples were considered stable if the average percentage concentration deviation was within 15% of the actual value.

[2] = Tissue distribution study in rats after intragastric administration; type: in vivo, Sprague–Dawley rats; conditions: intragastric 25 mg/kg
Method: Sprague–Dawley rats (250 ± 20 g) were supplied from the Experimental Animal Centre of China Medical University (Shenyang, China) and housed under unified conditions. All of the animal experiments were conducted in compliance with the Guidelines for Care and Use of Laboratory Animals of China Medical University and the protocols were approved by the Animal Ethics Committee of the institution (code number: CMU2023205). The rats were raised in a standard environment with a temperature of 24 ± 2 °C, relative humidity of 55 ± 10%, and 12 h light/12 h dark cycles. These rats were acclimatized to the environment for at least one week before the experiment, provided free access to drinking water, and fed during this period. Twenty-four SD rats, which were divided into four groups (six rats per group), received 5 mg/kg itampolin A by intravenous administration or 10, 25, and 50 mg/kg itampolin A by intragastric administration for the pharmacokinetics experiments. Twenty SD rats (five rats for each time point) received 25 mg/kg itampolin A by intragastric administration for the tissue distribution study.
Various tissues (heart, liver, spleen, lung, kidney, brain, intestine, and stomach) were harvested and washed with ice-cold 0.9% sodium chloride solution to remove the superficial blood. After being blotted dry with filter paper, each tissue sample weighed accurately was homogenized in 0.9% sodium chloride solution (1:5, w/v). Then, 100 µL of tissue homogenate was taken and processed further like the plasma sample.
Twenty Sprague–Dawley rats were randomly divided into four groups (five rats each) and received a single dose of 25 mg/kg of itampolin A via intragastric administration. The rats were executed by cervical dislocation at 1, 4, 8, and 12 h. Afterwards, various tissue samples, including heart, liver, spleen, lung, kidney, brain, intestine, and stomach, were collected into centrifuged tubes, and then processed with the methods described in “3.5. Sample Preparation”.

[3] = measured within 12 h, mean ± SD, n = 5

Q: Which “Stability, Short-Term (at Room Temperature for 4 h)” value (from here on “Stability, Short-Term”) ([1]; liver, spiked 1280 ng/mL) does the source give for COc1c(Br)cc(C[C@H](NC(=O)Cc2ccc(OCCCNC(C)=O)cc2)C(=O)NCCc2cc(Br)c(O)c(Br)c2)cc1Br [itampolin A, Itampolin A] here?
A: 102.9 ± 6.5

Q: What about the “Stability, Three Freeze–Thaw Cycles” value ([1]; liver, spiked 1280 ng/mL) of the same molecule?
A: 95.1 ± 9.2

Q: What about the “Stability, Autosampler 4 °C for 24 h” value ([1]; lung, spiked 3 ng/mL) of the same molecule?
A: 102.5 ± 9.3

Q: And the “Stability, Long-Term (at −80 °C for 30 Days)” value (“Stability, Long-Term” below) ([1]; lung, spiked 3 ng/mL)?
A: 95.6 ± 4.9

Q: And the “Stability, Short-Term” value ([1]; lung, spiked 3 ng/mL)?
A: 108.7 ± 5.1

Q: What about the “Stability, Three Freeze–Thaw Cycles” value ([1]; lung, spiked 3 ng/mL) of the same molecule?
A: 95.9 ± 7.2

Q: And the “Stability, Autosampler 4 °C for 24 h” value ([1]; lung, spiked 40 ng/mL)?
A: 99.3 ± 6.9

Q: What about the “Stability, Long-Term” value ([1]; lung, spiked 40 ng/mL) of the same molecule?
A: 106.7 ± 8.8

Q: And the “Stability, Short-Term” value ([1]; lung, spiked 40 ng/mL)?
A: 103.1 ± 3.3

Q: And the “Stability, Three Freeze–Thaw Cycles” value ([1]; lung, spiked 40 ng/mL)?
A: 86.0 ± 4.2

Q: And the “Stability, Autosampler 4 °C for 24 h” value ([1]; lung, spiked 1280 ng/mL)?
A: 98.5 ±3.1

Q: What about the “Stability, Long-Term” value ([1]; lung, spiked 1280 ng/mL) of the same molecule?
A: 96.4 ± 4.8

Q: What about the “Stability, Short-Term” value ([1]; lung, spiked 1280 ng/mL) of the same molecule?
A: 101.2 ± 2.9

Q: What about the “Stability, Three Freeze–Thaw Cycles” value ([1]; lung, spiked 1280 ng/mL) of the same molecule?
A: 91.4 ± 5.9

Q: And the “Stability, Autosampler 4 °C for 24 h” value ([1]; plasma, spiked 3 ng/mL)?
A: 97.3 ± 5.5

Q: And the “Stability, Long-Term” value ([1]; plasma, spiked 3 ng/mL)?
A: 90.5 ± 6.7

Q: What about the “Stability, Short-Term” value ([1]; plasma, spiked 3 ng/mL) of the same molecule?
A: 103.9 ± 8.0

Q: What about the “Stability, Three Freeze–Thaw Cycles” value ([1]; plasma, spiked 3 ng/mL) of the same molecule?
A: 106.8 ± 8.8

Q: And the “Stability, Autosampler 4 °C for 24 h” value ([1]; plasma, spiked 40 ng/mL)?
A: 96.6 ± 6.3

Q: And the “Stability, Long-Term” value ([1]; plasma, spiked 40 ng/mL)?
A: 93.6 ± 8.2

Q: And the “Stability, Short-Term” value ([1]; plasma, spiked 40 ng/mL)?
A: 100.1 ± 4.1

Q: And the “Stability, Three Freeze–Thaw Cycles” value ([1]; plasma, spiked 40 ng/mL)?
A: 95.3 ± 8.3

Q: What about the “Stability, Autosampler 4 °C for 24 h” value ([1]; plasma, spiked 1280 ng/mL) of the same molecule?
A: 98.3 ± 2.9

Q: And the “Stability, Long-Term” value ([1]; plasma, spiked 1280 ng/mL)?
A: 95.8 ± 8.4

Q: And the “Stability, Short-Term” value ([1]; plasma, spiked 1280 ng/mL)?
A: 97.8 ± 4.1

Q: What about the “Stability, Three Freeze–Thaw Cycles” value ([1]; plasma, spiked 1280 ng/mL) of the same molecule?
A: 110.6 ± 5.6

Q: And the “stability during processing procedures” value ([1]; room temperature for 4 h and autosampler for 24 h, deviation in concentration within ±15% from nominal values)?
A: stable

Q: And the “Stability, Autosampler 4 °C for 24 h” value ([1]; spleen, spiked 3 ng/mL)?
A: 103.8 ± 8.5

Q: And the “Stability, Long-Term” value ([1]; spleen, spiked 3 ng/mL)?
A: 89.5 ± 8.9

Q: What about the “Stability, Short-Term” value ([1]; spleen, spiked 3 ng/mL) of the same molecule?
A: 96.2 ± 2.2

Q: What about the “Stability, Three Freeze–Thaw Cycles” value ([1]; spleen, spiked 3 ng/mL) of the same molecule?
A: 98.4 ± 6.6

Q: And the “Stability, Autosampler 4 °C for 24 h” value ([1]; spleen, spiked 40 ng/mL)?
A: 105.8 ± 3.6

Q: And the “Stability, Long-Term” value ([1]; spleen, spiked 40 ng/mL)?
A: 102.9 ± 8.7

Q: And the “Stability, Short-Term” value ([1]; spleen, spiked 40 ng/mL)?
A: 100.6 ± 3.8

Q: What about the “Stability, Three Freeze–Thaw Cycles” value ([1]; spleen, spiked 40 ng/mL) of the same molecule?
A: 112.2 ± 6.5

Q: And the “Stability, Autosampler 4 °C for 24 h” value ([1]; spleen, spiked 1280 ng/mL)?
A: 101.2 ± 4.2

Q: What about the “Stability, Long-Term” value ([1]; spleen, spiked 1280 ng/mL) of the same molecule?
A: 104.1 ± 5.2

Q: And the “Stability, Short-Term” value ([1]; spleen, spiked 1280 ng/mL)?
A: 98.4 ± 2.1

Q: What about the “Stability, Three Freeze–Thaw Cycles” value ([1]; spleen, spiked 1280 ng/mL) of the same molecule?
A: 92.4 ± 7.8

Q: And the “Stability, Autosampler 4 °C for 24 h” value ([1]; stomach, spiked 3 ng/mL)?
A: 87.5 ± 3.3

Q: What about the “Stability, Long-Term” value ([1]; stomach, spiked 3 ng/mL) of the same molecule?
A: 92.6 ± 6.5

Q: What about the “Stability, Short-Term” value ([1]; stomach, spiked 3 ng/mL) of the same molecule?
A: 100.6 ± 7.6

Q: And the “Stability, Three Freeze–Thaw Cycles” value ([1]; stomach, spiked 3 ng/mL)?
A: 103.2 ± 4.2

Q: And the “Stability, Autosampler 4 °C for 24 h” value ([1]; stomach, spiked 40 ng/mL)?
A: 104.8 ± 7.8

Q: And the “Stability, Long-Term” value ([1]; stomach, spiked 40 ng/mL)?
A: 95.6 ± 5.8

Q: What about the “Stability, Short-Term” value ([1]; stomach, spiked 40 ng/mL) of the same molecule?
A: 99.0 ± 4.3

Q: And the “Stability, Three Freeze–Thaw Cycles” value ([1]; stomach, spiked 40 ng/mL)?
A: 114.8 ± 6.6

Q: What about the “Stability, Autosampler 4 °C for 24 h” value ([1]; stomach, spiked 1280 ng/mL) of the same molecule?
A: 98.5 ± 2.6

Q: And the “Stability, Long-Term” value ([1]; stomach, spiked 1280 ng/mL)?
A: 94.1 ± 6.1

Q: And the “Stability, Short-Term” value ([1]; stomach, spiked 1280 ng/mL)?
A: 99.1 ± 4.2

Q: And the “Stability, Three Freeze–Thaw Cycles” value ([1]; stomach, spiked 1280 ng/mL)?
A: 97.7 ± 4.7

Q: What about the “effect of storage on quantification” value ([1]; three freeze–thaw cycles and long-term storage (−80 °C for 30 days)) of the same molecule?
A: no effect on the quantification

Q: And the “concentration in the brain” value [2]?
A: lower concentration in the brain

Q: What about the “distribution in the heart and spleen” value [2] of the same molecule?
A: low distribution level and rapid elimination

Q: And the “highest concentration in intestine” value [2, 3]?
A: 378.2 ± 36.8 ng/mL

Q: And the “highest concentration in kidney” value [2, 3]?
A: 497.7 ± 51.9 ng/mL

Q: And the “highest concentration in liver” value [2, 3]?
A: 418.8 ± 40.3 ng/mL

Q: What about the “highest concentration in lung” value [2, 3] of the same molecule?
A: 800.6 ± 79.0 ng/mL

Q: What about the “highest concentration in stomach” value [2, 3] of the same molecule?
A: 429.6 ± 27.2 ng/mL

From paper PMC11173508, “Pharmacokinetics and Tissue Distribution of Itampolin A following Intragastric and Intravenous Administration in Rats Using Ultra-High-Performance Liquid Chromatography–Tandem Mass Spectrometry” (Molecules, 2024)
